Results on ten compounds are retold here after ChEMBL document CHEMBL3046659, “Synthesis and Biological Evaluation of Allosteric A1-Adenosine Receptor Modulators Structurally Related to (2-Amino-4,5,6,7-Tetrahydro-Benzo[B]Thiophen-3-YL)-(4-Chloro-Phenyl)-Methanone, a Potent Compound Useful to Reduce Neuropathic Pain” (Med Chem Res, 2005).

Active and inactive are the calls of the source. The rule behind the calls is not given here.

Assay [1] has as its target T1, Adenosine receptor A1 (Homo sapiens) (UniProt P30542).
T1 sequence (whole entry): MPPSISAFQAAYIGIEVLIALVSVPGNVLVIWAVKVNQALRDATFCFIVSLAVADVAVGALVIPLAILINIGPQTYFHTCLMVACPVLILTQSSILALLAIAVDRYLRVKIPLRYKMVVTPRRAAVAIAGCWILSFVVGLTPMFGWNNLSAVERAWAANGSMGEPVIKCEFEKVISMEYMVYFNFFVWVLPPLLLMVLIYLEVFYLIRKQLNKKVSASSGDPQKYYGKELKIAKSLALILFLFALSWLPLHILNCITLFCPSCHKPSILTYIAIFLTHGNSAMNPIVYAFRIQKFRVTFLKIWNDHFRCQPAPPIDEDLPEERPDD
The assay can be described thus: Allosteric modulation of Homo sapiens (human) Adenosine A1 receptor expressed in CHO cells assessed as reduction of cAMP level at 10 uM after 6 min by radioimmunoassay. Format: functional, cell-based. Further details: scale not given: the % may be the effect or the level left.

The target of assay [2] is T1, Adenosine receptor A1 (Homo sapiens). The assay can be described thus: Antagonist activity at Homo sapiens (human) Adenosine A1 receptor expressed in CHO cells assessed as cAMP level at 0.01 to 10 uM after 6 min by radioimmunoassay. Format: functional, cell-based.
For assay [3] the target is unchanged. The assay can be described thus: Allosteric modulation of Homo sapiens (human) Adenosine A1 receptor expressed in CHO cells assessed as reduction of cAMP level at 0.01 uM after 6 min by radioimmunoassay. Format: functional, cell-based. Further details: scale not given: the % may be the effect or the level left. On the technique in general: Cyclic AMP is a second messenger, typically raised through Gs and lowered through Gi signalling.

Assay [4] has the same target. The assay can be described thus: Allosteric modulation of Homo sapiens (human) Adenosine A1 receptor expressed in CHO cells assessed as reduction of cAMP level at 1 uM after 6 min by radioimmunoassay. It is filed as functional, cell-based. Also noted: scale not given: the % may be the effect or the level left.
For assay [5] the target is unchanged. The assay can be described thus: Allosteric modulation of Homo sapiens (human) Adenosine A1 receptor expressed in CHO cells assessed as reduction of cAMP level at 0.1 uM after 6 min by radioimmunoassay. It is filed as functional, cell-based. Also noted: scale not given: the % may be the effect or the level left.
The target is the same in assay [6]. The assay can be described thus: Inverse agonist activity at Homo sapiens (human) Adenosine A1 receptor expressed in CHO cells assessed as increase in cAMP level at 0.01 uM after 6 min by radioimmunoassay. It is filed as functional, cell-based.
Assay [7] shares this target. The assay can be described thus: Displacement of [3H]CCPA from Homo sapiens (human) A1 receptor expressed in CHO cells at 10 uM after 90 min. Format: cell-based. On the technique in general: Displacement assays read how much labelled ligand stays bound in the presence of the test substance.
Assay [8] has the same target. The assay can be described thus: Displacement of [3H]CCPA from A1 receptor in Homo sapiens (human) brain membrane at 10 uM after 90 min.
Assay [9] concerns the target T2, Adenosine receptor A1 (Rattus norvegicus) (UniProt P25099).
T2 sequence (whole entry): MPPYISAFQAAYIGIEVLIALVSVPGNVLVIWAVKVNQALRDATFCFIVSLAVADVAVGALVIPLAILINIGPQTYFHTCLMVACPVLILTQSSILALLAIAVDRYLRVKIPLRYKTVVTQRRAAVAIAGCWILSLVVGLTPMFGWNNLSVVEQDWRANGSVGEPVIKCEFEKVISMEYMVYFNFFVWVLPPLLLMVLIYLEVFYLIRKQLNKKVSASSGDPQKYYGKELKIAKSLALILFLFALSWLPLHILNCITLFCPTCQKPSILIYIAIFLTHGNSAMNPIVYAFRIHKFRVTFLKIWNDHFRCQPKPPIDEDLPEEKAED
The assay can be described thus: Displacement of [3H]CCPA from A1 receptor in Rattus norvegicus (rat) brain membrane at 10 uM after 90 min.

For assay [10], the target named is T1, Adenosine receptor A1 (Homo sapiens). The assay can be described thus: Allosteric enhancer activity at Homo sapiens (human) Adenosine A1 receptor expressed in CHO cells assessed as […] in cAMP level at 10 uM after 6 min by radioimmunoassay. Format: functional, cell-based.
The target is the same in assay [11]. The assay can be described thus: Inverse agonist activity at Homo sapiens (human) Adenosine A1 receptor expressed in CHO cells assessed as increase in cAMP level at 1 uM after 6 min by radioimmunoassay. It is filed as functional, cell-based.
The target is the same in assay [12]. The assay can be described thus: Inverse agonist activity at Homo sapiens (human) Adenosine A1 receptor expressed in CHO cells assessed as increase in cAMP level at 0.1 uM after 6 min by radioimmunoassay. It is filed as functional, cell-based.
The target is the same in assay [13]. The assay can be described thus: Inverse agonist activity at Homo sapiens (human) Adenosine A1 receptor expressed in CHO cells assessed as increase in cAMP level at 10 uM after 6 min by radioimmunoassay. Format: functional, cell-based.

With `Nc1sc2c(c1C(=O)c1ccc(Cl)cc1)CCC(O)C2` (stereo unspecified), the Activity in assay [1] was 52%; in [3] it was -3%; in assay [4], -2%; in assay [5], -13%. In assay [2], the outcome was Active.
In the case of `COc1ccc(C2SCc3c(sc(N)c3C(=O)c3ccc(Cl)cc3)S2)cc1` (stereo unspecified), the Activity is -5% in assay [1], 4% in assay [3], -17% in assay [4] and -13% in assay [5]. For the same compound, the result in [2] and in assay [6] was Active.
For the compound `Nc1sc2c(c1C(=O)c1ccc(Cl)cc1)CCC(c1ccccc1)C2` (stereo unspecified), the Activity was -7% in assay [1]; 20% in [3]; 65% in [7]; -11% in assay [4]; 29% in assay [8]; 33% in assay [9]. Moreover, the Activity in assay [5] is -1%. In addition, the outcome in assay [2] and in [6] was Active. This compound also displayed a Bmax in assay [7] of 53%.
Take `Nc1sc2c(c1C(=O)c1ccc(Cl)cc1)CCS2`: the Activity in assay [1] is -35%; in assay [3], -1%; in assay [4], 1%; in assay [5], 11%. The outcome in assay [10], in assay [11] and in assay [12] was Active.
Consider `Nc1sc2c(c1C(=O)c1ccc(Cl)cc1)CCCC2`, for which the Activity in assay [1] was -55%; in [3] it was -8%; in assay [4] it was -26%; in [5], -23%. Besides, in assay [2], the result was Active.
Regarding `Nc1sc2c(c1C(=O)c1ccc(Cl)cc1)CCSC2`, the Activity in [1] is -0.3%; in assay [3] it was 15%; in [4] it was 16%; in assay [5] it was -10%. The result in [2], in assay [6] and in assay [11] was Active.
Consider `CS(=O)(=O)OC1CCc2c(sc(N)c2C(=O)c2ccc(Cl)cc2)C1` (stereo unspecified), for which the Activity is 46% in assay [1], 11% in assay [3], 15% in [4] and -1% in assay [5]. In addition, the result in assay [2], in [6], in assay [11] and in assay [13] was Active.
As to `Nc1sc2c(c1C(=O)c1ccc(Cl)cc1)CCC1(C2)OCCO1`, the Activity is 28% in [1], -17% in assay [3], 3% in assay [4] and -14% in [5]. Besides, the outcome in assay [2], in assay [11] and in assay [13] was Active.
For the compound `Nc1sc2c(c1C(=O)c1ccc(Cl)cc1)CCC(Cc1ccccc1)C2` (stereo unspecified), the Activity was 16% in assay [1], -11% in assay [3], -1% in assay [4] and -6% in [5]. In addition, the result in [2] and in assay [13] was Active.
On to `Nc1sc2ccccc2c1C(=O)c1ccc(Cl)cc1`, for which the Activity was -29% in assay [1], -8% in assay [3], -6% in [4] and -5% in assay [5]. In [10], the outcome was Active.
